# Results from patent US12357680B2, “Inhibition of histone methyl transferases to treat cancer” (Albert-Ludwigs-Universitat Freiburg, priority 2018, dated 2025).
# Experiments:
# [1] = target: recombinant KMT9 (C21orf127/TRMT112) (Homo sapiens (Human), UniProt Q9Y5N5); test: Histone H4 methylation assay with SAM[3H], autoradiography; assay type: biochemical; details: histone H4, SAM[3H]
# Method: FIG. 1 C21orf127/TRMT112 methylates histone H4 at K12. (A to C) Methylation assays. (A) Histone H4, H3, H2A, H2B, and H1 were incubated with SAM[^3H] in the absence or presence of recombinant C21orf127/TRMT112. (B) Wild-type or mutant histone H4 were incubated with SAM[3H] in the presence of recombinant C21orf127/TRMT112. Proteins were stained by Ponceau red. […] (C) Histone H4 was incubated with C21orf127/TRMT112, SAM[^3H], and the SAM competitive inhibitor sinefungin as indicated. Proteins were stained by Ponceau red.
# FIG. 9. […] Histone H4 (2 μg) was incubated with SAM[3H] in the presence of recombinant KMT9 (KMT9α and KMT90) and the three afore-mentioned inhibitors as indicated.
# It was tested in this example whether the known DOT1L-inhibitors EPZ5676, SGC0946 and EPZ004777 (which are commercially available) are capable of inhibiting KMT9. To this aim, histone H4 was incubated with SAM[^3H] in the presence of recombinant KMT9 (provided in the form of the heterodimer of KMT9α and KMT90) and the three afore-mentioned inhibitors.
# Four to eight μg of purified recombinant His-C21orf127, His-C21orf127/TRMT112, His-C21orf127(D103A)/TRMT112, His-C21orf127(N122A)/TRMT112, His-C21orf127(Y125A)/TRMT112, His-TRMT112, WBSCR22/TRMT112, His-TRMT11, His-TRMT12, His-KIAA1456, His-TRMT5, His-METTL27, His-METTL21A and His-METTL21B were incubated either with 4 μg core histones or 2 μg of histones H4, H3, H2A, H2B, H1 (BPS Bioscience), histone H4K12A, or His-ETF1 as indicated in methylation buffer (10 mM Tris-HCl pH 7.6, 50 mM KCl, 10 mM Mg(OAc)2, 1 mM DTT) supplemented as indicated with 1.5 μM SAM or 1.5 μl of radioactively labelled [^3H]SAM for 60 min (METTL21A: 300 minutes, METTL21B: 18 h) at 30° C. For mass spectrometry analysis, 2 μg of histone H4 were incubated overnight with 2 μg of His-C21orf127/TRMT112 in presence of SAM, heavy SAM, or SAM/heavy SAM mixture. The reaction mixture was analysed by autoradiography, Western blotting, or mass spectrometry.
# [2] = system: MDA-MB-468 breast cancer cells; test: Cell proliferation, xCelligence RTCA; assay type: cell-based; details: final concentration of 30 μM, vs DMSO
# Method: (§1) Compound 75b was tested in a proliferation assay in cell culture as described in the following. Thus, compound 75b (alternatively referred to as “KMI95423411”) was added to a final concentration of 30 μM (in the controls, DMSO as added) to cells of the following cell lines: LNCaP, SW-480, A549, MDA-MB-468 and HepG2, and the cells were cultured in the presence of inhibitor or DMSO. At the time points indicated in FIG. 15, the cells were seeded in E-plates and the cell proliferation was determined using the xCelligence RTCA system (Roche) as described below.
# (§2) Cell proliferation, migration and invastion were determined using the X-Celligence RTCA system (Roche). pLenti-LacZ, pLenti-KMT9α, pLenti-KMT9α(N122A), pLenti-KMT9α(Y125A) pLenti-ETF1, pLenti-shLaZ, and pLenti-shKMT9α constructs were used to produce recombinant lentiviruses to infect LNCaP and PC-3M cells as described in Metzger et al., 2005. For real-time recording of LNCaP, LNCaP-abl, LNCaP-abl EnzaR, and C4-2B cell proliferation, 20000 cells/well were seeded in 16 well E-plates (Roche). For PC-3M, 2500 cells/well were used. For DuCaP EnzaR, LAPC4 and LAPC4 EnzaR, 40000 cells/well were used. Cells were transfected with the indicated siRNAs in presence of Dharmafect 1 (LNCaP-abl, LAPC4, LAPC4 EnzaR; Dharmacon), Dharmafect 2 (LNCaP, PC-3M), or RNAiMAx (C4-2B, LNCaP-abl EnzaR, DuCaP EnzaR; Caco-2, HT-29, SK-N-SH, SW620, SW480, HT-29, HT-115, HCT116 p53+/+ and HCT p53−/−; Life Technologies) 24 h before seeding in E-plates. Cell indices were automatically recorded every 15 minutes. Relative velocities represent the change of the cell index over time. The sequences of the siRNAs (Stealth RNAi™ siRNAs; Life Technologies) used in the experiments are as following: siCtrl: […]
# A549 lung tumour cells = test: Cell proliferation, xCelligence RTCA; assay type: cell-based; details: final concentration of 30 μM, vs DMSO
# Method: as §1, §2
# HepG2 cells = test: Cell proliferation, xCelligence RTCA; assay type: cell-based; details: final concentration of 30 μM, vs DMSO; KMT9 non-responsive cells
# Method: as §1, §2
# [3] = system: LNCaP prostate tumour cells; test: Cell proliferation, xCelligence RTCA; assay type: cell-based, human
# Method: as §1, §2
# [4] = system: SW-480 colorectal cancer cells; test: Cell proliferation, xCelligence RTCA; assay type: cell-based, human; details: final concentration of 30 μM, vs DMSO
# Method: as §1, §2
# PRDM9 = PRDM9 (Homo sapiens (Human), UniProt Q9NQV7); test: Methyltransferase panel, 10-dose IC50 mode; assay type: biochemical; details: Substrate: Histone H3; 1 μM SAM; read-out: Control IC50*
# Method: (§3) Compound 72b was further tested against a plurality of methyltransferases as described in the following. […] Reactions were carried out at 1 μM SAM. Curve fits were performed where the enzyme activities at the highest concentration of compounds were less than 65%. […] Compound 72b is referred to as KMI9542321 in the table below.
# NSD3 = NSD3 (Homo sapiens (Human), UniProt Q9BZ95); test: Methyltransferase panel, 10-dose IC50 mode; assay type: biochemical; details: Substrate: Nucleosomes; 1 μM SAM; read-out: Control IC50*
# Method: as §3
# ASH1L = ASH1L (Homo sapiens (Human), UniProt Q9NR48); test: Methyltransferase panel, 10-dose IC50 mode; assay type: biochemical; details: Substrate: Nucleosomes; 1 μM SAM; read-out: Control IC50*
# Method: as §3
# SET8 = SET8 (Homo sapiens (Human), UniProt Q9NQR1); test: Methyltransferase panel, 10-dose IC50 mode; assay type: biochemical; details: Substrate: Nucleosomes; 1 μM SAM; read-out: Control IC50*
# Method: as §3
# C21orf127 = C21orf127 (Homo sapiens (Human), UniProt Q9Y5N5); test: Isothermal titration calorimetry (ITC) SAM binding; details: monomeric C21orf127
# Method: (§4) ITC experiments were performed at 20° C. with a MicroCal VP-ITC microcalorimeter (Malvern). […] ITC data were analysed and fitted with one-site binding model by using Origin 7.0.
# C21orf127/TRMT112 = C21orf127/TRMT112 (Homo sapiens (Human), UniProt Q9Y5N5); test: Isothermal titration calorimetry (ITC) SAM binding; details: 20° C.
# Method: as §4
# C21orf127(D103)/TRMT112 = C21orf127(D103)/TRMT112 (Homo sapiens (Human), UniProt Q9Y5N5, D103A); test: Isothermal titration calorimetry (ITC) SAM binding; details: mutant heterodimer
# Method: as §4
# TRMT112 = TRMT112 (Homo sapiens (Human), UniProt Q9UI30); test: Isothermal titration calorimetry (ITC) SAM binding; details: monomeric TRMT112
# Method: as §4
# LNCaP xenograft tumours = test: Growth of xenograft tumours in NOD/SCID mice; assay type: in vivo; details: cells infected with lentivirus, subcutaneous, vs miRNA Ctrl
# Source text: (§5) It was investigated whether KMT9α loss might affect tumour growth in mice. Therefore, PC-3M and LNCaP cells were infected with lentivirus driving expression of either miRNA control (miRNA Ctrl) or miRNA against KMT9α (miRNA KMT9α) and implanted subcutaneously in the flank of immunocompromised mice. […] To investigate whether knockdown of KMT9α also blocks growth of enzalutamide-resistant tumours, LAPC4 EnzaR miCtrl and miKMT9α cells were implanted subcutaneously in the flank of immunocompromised, castrated mice.
# (§6) pLenti6-miRNA Control and pLenti6-miRNA KMT9α constructs were used to produce recombinant lentiviruses to infect LNCaP, PC-3M and LAPC4 EnzaR cells as described^26. Five-week-old male severe combined immunodeficient mice were purchased from Charles River Laboratories. For tumour inoculation 5×10^6 LNCaP, 2×10^6 PC-3M, and 5×10^6 LAPC4 EnzaR cells infected with pLenti6-miRNA Control or pLenti6-miRNA KMT9α constructs were injected in NOD/SCID mice, respectively. Mice were castrated one week before injection of LAPC4 EnzaR. Cells were resuspended in 100 μl RPMI1640 mixed with 100 μl Matrigel (BD Biosciences) on ice and administered subcutaneously in the flank of each animal. The tumour size was determined by calliper measurements two times a week^24. Tumour volumes were calculated using the formula 4/3×π×r3. All experiments were performed according to the German Animal Protection Law with permission from the responsible local authorities.
# [5] = system: LAPC4 EnzaR xenograft tumours; test: Growth of xenograft tumours in NOD/SCID mice; assay type: in vivo; details: castrated mice, subcutaneous, vs miCtrl
# Source text: as §5, §6
# PC-3M xenograft tumours = test: Growth of xenograft tumours in NOD/SCID mice; assay type: in vivo; details: cells infected with lentivirus, subcutaneous, vs miRNA Ctrl
# Source text: as §5, §6
# Chain of recombinant KMT9 (C21orf127/TRMT112) (Q9Y5N5 whole entry): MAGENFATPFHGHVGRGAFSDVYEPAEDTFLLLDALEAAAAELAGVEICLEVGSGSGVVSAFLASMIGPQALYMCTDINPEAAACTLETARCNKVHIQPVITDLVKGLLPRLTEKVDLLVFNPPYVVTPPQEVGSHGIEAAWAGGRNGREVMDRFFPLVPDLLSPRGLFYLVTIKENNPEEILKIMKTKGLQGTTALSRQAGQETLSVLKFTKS
# Chain of recombinant KMT9 (C21orf127/TRMT112) (Q9UI30 whole entry partner): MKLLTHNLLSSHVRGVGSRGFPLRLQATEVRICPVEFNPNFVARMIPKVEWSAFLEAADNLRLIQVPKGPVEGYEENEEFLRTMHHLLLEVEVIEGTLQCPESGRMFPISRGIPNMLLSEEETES
# Chain of TRMT112 (Q9UI30 whole entry): as the sequence (Q9UI30 whole entry partner) above
# Chain of SET8 (Q9NQR1 whole entry): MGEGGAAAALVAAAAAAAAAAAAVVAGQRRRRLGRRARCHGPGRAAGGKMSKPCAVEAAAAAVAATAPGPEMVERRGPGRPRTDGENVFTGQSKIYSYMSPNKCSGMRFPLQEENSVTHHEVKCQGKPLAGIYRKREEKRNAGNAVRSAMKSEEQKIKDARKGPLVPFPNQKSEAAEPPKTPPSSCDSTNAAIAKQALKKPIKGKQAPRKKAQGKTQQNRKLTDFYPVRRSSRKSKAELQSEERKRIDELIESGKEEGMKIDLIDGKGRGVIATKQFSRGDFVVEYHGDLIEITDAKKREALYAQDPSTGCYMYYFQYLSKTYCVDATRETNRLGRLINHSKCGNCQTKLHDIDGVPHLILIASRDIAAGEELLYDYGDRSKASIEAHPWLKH
# Chain of PRDM9 (Q9NQV7 whole entry): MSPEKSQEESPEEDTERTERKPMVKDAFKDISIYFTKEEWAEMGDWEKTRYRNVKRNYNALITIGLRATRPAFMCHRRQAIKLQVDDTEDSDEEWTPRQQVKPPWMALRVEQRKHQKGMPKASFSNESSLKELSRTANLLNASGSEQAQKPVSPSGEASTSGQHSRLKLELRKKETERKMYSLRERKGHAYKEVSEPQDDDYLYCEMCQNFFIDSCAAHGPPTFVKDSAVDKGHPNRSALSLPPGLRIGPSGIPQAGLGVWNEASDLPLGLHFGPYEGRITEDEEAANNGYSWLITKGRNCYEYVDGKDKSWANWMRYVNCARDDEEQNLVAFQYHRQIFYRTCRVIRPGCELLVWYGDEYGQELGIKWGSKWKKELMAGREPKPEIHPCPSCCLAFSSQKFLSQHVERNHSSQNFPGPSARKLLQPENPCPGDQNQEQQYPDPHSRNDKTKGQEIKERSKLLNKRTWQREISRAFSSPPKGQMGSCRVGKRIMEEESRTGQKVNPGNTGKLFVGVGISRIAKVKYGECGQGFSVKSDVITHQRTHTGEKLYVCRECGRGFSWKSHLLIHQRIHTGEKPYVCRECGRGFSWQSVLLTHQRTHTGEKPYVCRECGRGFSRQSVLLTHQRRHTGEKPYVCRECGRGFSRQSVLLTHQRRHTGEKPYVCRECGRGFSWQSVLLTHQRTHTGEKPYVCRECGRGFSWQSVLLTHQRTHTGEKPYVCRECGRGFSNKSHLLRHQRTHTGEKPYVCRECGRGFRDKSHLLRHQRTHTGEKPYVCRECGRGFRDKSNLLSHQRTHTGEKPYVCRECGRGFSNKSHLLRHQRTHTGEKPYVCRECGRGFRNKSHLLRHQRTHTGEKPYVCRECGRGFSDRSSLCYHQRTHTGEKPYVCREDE
# Chain of C21orf127(D103)/TRMT112 (Q9Y5N5 whole entry D103A): as the sequence (Q9Y5N5 whole entry) above, with D103A counted along it
# Chain of C21orf127(D103)/TRMT112 (Q9UI30 whole entry partner): as the sequence (Q9UI30 whole entry partner) above
# Chain of NSD3 (Q9BZ95 whole entry): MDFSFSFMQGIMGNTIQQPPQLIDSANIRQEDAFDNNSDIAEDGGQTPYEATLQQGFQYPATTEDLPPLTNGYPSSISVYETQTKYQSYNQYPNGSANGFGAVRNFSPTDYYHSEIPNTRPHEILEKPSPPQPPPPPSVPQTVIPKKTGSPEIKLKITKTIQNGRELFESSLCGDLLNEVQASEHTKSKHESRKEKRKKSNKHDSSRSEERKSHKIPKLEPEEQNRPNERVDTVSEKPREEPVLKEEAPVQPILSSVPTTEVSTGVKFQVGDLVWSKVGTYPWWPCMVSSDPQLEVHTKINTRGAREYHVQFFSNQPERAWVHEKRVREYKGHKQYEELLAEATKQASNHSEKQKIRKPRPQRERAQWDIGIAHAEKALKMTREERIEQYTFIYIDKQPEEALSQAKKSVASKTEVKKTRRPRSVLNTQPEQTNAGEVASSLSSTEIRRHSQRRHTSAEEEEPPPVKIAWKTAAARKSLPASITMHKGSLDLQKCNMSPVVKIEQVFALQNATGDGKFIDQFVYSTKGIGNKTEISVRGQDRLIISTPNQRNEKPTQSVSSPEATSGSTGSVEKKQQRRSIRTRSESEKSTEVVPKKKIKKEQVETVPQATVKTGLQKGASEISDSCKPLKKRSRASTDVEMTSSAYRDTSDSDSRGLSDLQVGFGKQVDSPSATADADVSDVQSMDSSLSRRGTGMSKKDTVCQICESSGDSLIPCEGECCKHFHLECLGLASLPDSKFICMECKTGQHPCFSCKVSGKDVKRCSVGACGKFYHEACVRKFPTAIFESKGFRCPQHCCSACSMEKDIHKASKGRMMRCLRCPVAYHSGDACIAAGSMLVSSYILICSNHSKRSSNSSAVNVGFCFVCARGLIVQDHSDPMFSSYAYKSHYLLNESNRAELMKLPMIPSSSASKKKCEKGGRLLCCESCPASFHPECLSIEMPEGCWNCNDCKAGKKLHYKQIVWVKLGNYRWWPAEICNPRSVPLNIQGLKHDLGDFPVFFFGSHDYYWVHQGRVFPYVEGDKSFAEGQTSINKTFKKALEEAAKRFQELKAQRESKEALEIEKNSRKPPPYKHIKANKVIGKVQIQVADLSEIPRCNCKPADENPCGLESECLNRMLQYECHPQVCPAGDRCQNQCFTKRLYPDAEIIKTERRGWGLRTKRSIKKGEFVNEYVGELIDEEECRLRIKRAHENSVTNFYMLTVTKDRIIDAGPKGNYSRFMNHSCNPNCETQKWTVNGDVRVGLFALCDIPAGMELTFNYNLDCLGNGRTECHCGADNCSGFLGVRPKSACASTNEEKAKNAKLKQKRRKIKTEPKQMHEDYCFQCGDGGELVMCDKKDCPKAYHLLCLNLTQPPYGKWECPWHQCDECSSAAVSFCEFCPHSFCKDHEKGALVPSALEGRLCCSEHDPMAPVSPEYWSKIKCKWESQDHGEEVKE
# Chain of C21orf127/TRMT112 (Q9Y5N5 whole entry): as the sequence (Q9Y5N5 whole entry) above
# Chain of C21orf127/TRMT112 (Q9UI30 whole entry partner): as the sequence (Q9UI30 whole entry partner) above
# Chain of C21orf127 (Q9Y5N5 whole entry): as the sequence (Q9Y5N5 whole entry) above
molecule,measurement,setting,value
CC(C)N(CCCNC(=O)Nc1ccc(C(C)(C)C)cc1)C[C@H]1O[C@@H](n2cc(Br)c3c(N)ncnc32)[C@H](O)[C@@H]1O [SGC0946],HMT activity of KMT9 (histone H4 methylation),[1],do not inhibit
CC(C)N(C[C@H]1O[C@@H](n2cnc3c(N)ncnc32)[C@H](O)[C@@H]1O)[C@H]1C[C@@H](CCc2nc3cc(C(C)(C)C)ccc3[nH]2)C1 [EPZ5676],HMT activity of KMT9 (histone H4 methylation),[1],do not inhibit
Nc1ncnc2c1ncn2[C@@H]1O[C@H](C[C@@H](N)CC[C@H](N)C(=O)O)[C@@H](O)[C@H]1O [sinefungin],HMT activity of KMT9 (histone H4 methylation),[1],blocked
"CNc1ncnc2c1ccn2[C@@H]1C[C@H](CN(CCCNCCc2cccc(Oc3ccccc3)c2)CC[C@H](N)C(=O)OC)[C@@H](O)[C@H]1O [Compound 75b, methyl (S)-2-amino-4-((((1R,2R,3S,4R)-2,3-dihydroxy-4-(4-(methylamino)-7H-pyrrolo[2,3-d]pyrimidin-7-yl)cyclopentyl)methyl)(3-((3-phenoxyphenethyl)amino)propyl)amino)butanoate]",proliferation,[2],blocks proliferation
same,proliferation,A549 lung tumour cells,blocks proliferation
same,proliferation,HepG2 cells,does not affect proliferation
same,proliferation,"[3]; final concentration of 30 μM, vs DMSO",blocks proliferation
same,proliferation,[4],blocks proliferation
"siKMT9α-3′UTR: siRNA that targets the three-prime untranslated region of the endogenously transcribed KMT9α mRNA (SEQ ID NO: 4) (GGAACUACAUUAGACUUAGUGGAAA; listed as RNA, chemistry not given here)",proliferation,"[3]; LNCaP-LacZ control cells, vs siCtrl",strongly impaired
CC(C)N(CCCNC(=O)Nc1ccc(C(C)(C)C)cc1)C[C@H]1O[C@@H](n2ccc3c(N)ncnc32)[C@H](O)[C@@H]1O [EPZ004777],HMT activity of KMT9 (histone H4 methylation),[1],do not inhibit
CN1C(=O)[C@@]23C[C@]4([C@]56C[C@@]78SS[C@@](CO)(C(=O)N7[C@H]5Nc5ccccc56)N(C)C8=O)c5ccccc5N[C@@H]4N2C(=O)[C@]1(CO)SS3 [Chaetocin],IC50,PRDM9,354 nM
same,IC50,NSD3,58.8 nM
same,IC50,ASH1L,27.4 nM
Cc1ccc(NC2=CC(=O)c3sc(C)nc3C2=O)cc1 [Ryuvidine],IC50,SET8,775 nM
"C[S+](CC[C@H](N)C(=O)[O-])C[C@H]1O[C@@H](n2cnc3c(N)ncnc32)[C@H](O)[C@@H]1O (stereo partly drawn) [SAM, S-adenosyl-methionine]",SAM binding,C21orf127,no SAM binding
same,Kd,C21orf127/TRMT112,2500 nM
same,SAM binding,C21orf127(D103)/TRMT112,no SAM binding
same,SAM binding,TRMT112,no SAM binding
"miRNA KMT9α: miRNA against KMT9α expressed from lentivirus pLenti6-miRNA KMT9α (SEQ ID NO: 1, 2) (nucleic acid) chain 1: TGCTGATGTGAACTTTGTTACAGCGTGTTTTGGCCACTGACTGACACGCTGTAAAAGTTCACAT chain 2: CCTGATGTGAACTTTTACAGCGTGTCAGTCAGTGGCCAAAACACGCTGTAACAAAGTTCACATC",growth and final weight of xenografts,LNCaP xenograft tumours,strongly reduced
same,growth and final weight of xenografts,[5],strongly reduced
same,growth and final weight of xenografts,PC-3M xenograft tumours,strongly reduced
